± gives the standard deviation of the averaged measurements.
Tests used:
Details in all cases: 72 h
Caco-2 [1] = experiment: cell viability relative to DMSO; higher = less toxic
Calu-3 [2] = experiment: as above
HepG2 [3] = experiment: as above
U2OS [4] = experiment: as above
Vero E6 [5] = experiment: as above
Caco-2 [6] = experiment: relative viability EC50 (midpoint between 100% and the lowest measured viability); higher = less toxic
Calu-3 [7] = experiment: as above
HepG2 [8] = experiment: as above
U2OS [9] = experiment: as above
Vero E6 [10] = experiment: as above
Caco-2 [11] = experiment: drug sensitivity score (DSS) for viability; higher = more toxic; extreme values may be limits of the assay
Calu-3 [12] = experiment: as above
HepG2 [13] = experiment: as above
U2OS [14] = experiment: as above
Vero E6 [15] = experiment: as above

Compound | cell viability (Caco-2 [1]; 1 nM) | cell viability (Caco-2 [1]; 10 nM) | cell viability (Caco-2 [1]; 100 nM) | cell viability (Caco-2 [1]; 1000 nM) | cell viability (Caco-2 [1]; 10000 nM) | cell viability (Calu-3 [2]; 1 nM) | cell viability (Calu-3 [2]; 10 nM) | cell viability (Calu-3 [2]; 100 nM) | cell viability (Calu-3 [2]; 1000 nM) | cell viability (Calu-3 [2]; 10000 nM) | cell viability (HepG2 [3]; 1 nM) | cell viability (HepG2 [3]; 10 nM) | cell viability (HepG2 [3]; 100 nM) | cell viability (HepG2 [3]; 1000 nM) | cell viability (HepG2 [3]; 10000 nM) | cell viability (U2OS [4]; 1 nM) | cell viability (U2OS [4]; 10 nM) | cell viability (U2OS [4]; 100 nM) | cell viability (U2OS [4]; 1000 nM) | cell viability (U2OS [4]; 10000 nM) | cell viability (Vero E6 [5]; 1 nM) | cell viability (Vero E6 [5]; 10 nM) | cell viability (Vero E6 [5]; 100 nM) | cell viability (Vero E6 [5]; 1000 nM) | cell viability (Vero E6 [5]; 10000 nM) | relative viability EC50 (Caco-2 [6]) | relative viability EC50 (Calu-3 [7]) | relative viability EC50 (HepG2 [8]) | relative viability EC50 (U2OS [9]) | relative viability EC50 (Vero E6 [10]) | drug sensitivity score (Caco-2 [11]) | drug sensitivity score (Calu-3 [12]) | drug sensitivity score (HepG2 [13]) | drug sensitivity score (U2OS [14]) | drug sensitivity score (Vero E6 [15])
CC(=O)N(CC(O)CO)c1c(I)c(C(=O)NCC(O)CO)c(I)c(C(=O)NCC(O)CO)c1I (stereo not given) [iohexol] | 95.9 ± 4.7% | 101 ± 3% | 101 ± 2.3% | 106 ± 6.4% | 96.3 ± 6% | 104 ± 4.5% | 95.5 ± 2.8% | 95.8 ± 1.3% | 104 ± 15% | 103.7 ± 0.99% | 96 ± 9.3% | 103 ± 4.3% | 99 ± 5.9% | 102 ± 11% | 91.7 ± 3% | 98 ± 4.5% | 99.2 ± 1.8% | 99.4 ± 2% | 99.9 ± 1.1% | 104.5 ± 0.14% | 96.2 ± 3.1% | 101 ± 2.2% | 98.7 ± 7.5% | 99.7 ± 2.1% | 106 ± 6.8% | > 10 µM | > 10 µM | > 10 µM | > 10 µM | > 10 µM | 0 | 0 | 0 | 0 | 0
Cc1ccc2c(c1CCC(=O)O)CC[C@@H](NS(=O)(=O)c1ccc(Cl)cc1)C2 [terutroban] | 93% | 97.4% | 100% | 102% | 92.2% | 93.2% | 85.6% | 92.8% | 105% | 97.7% | 102% | 90.7% | 95.1% | 103% | 96.3% | 97.1% | 96.7% | 94.4% | 99.5% | 93.2% | 96.8% | 97.6% | 95.6% | 94.6% | 95.8% | > 10 µM | > 10 µM | > 10 µM | > 10 µM | > 10 µM | 0 | 0 | 0 | 0 | 0
CC(C)N(C[C@H]1O[C@@H](n2cnc3c(N)ncnc32)[C@H](O)[C@@H]1O)[C@H]1C[C@@H](CCc2nc3cc(C(C)(C)C)ccc3[nH]2)C1 [EPZ-5676] | 90.7% | 99.2% | 100% | 97.1% | 101% | 101% | 102% | 95.4% | 104% | 104% | 106% | 94.9% | 89.7% | 105% | 108% | 105% | 97.5% | 101% | 102% | 111% | 106% | 106% | 98.9% | 102% | 106% | > 10 µM | > 10 µM | > 10 µM | > 10 µM | > 10 µM | 0 | 0 | 0 | 0 | 0
O=C(O)c1cc(O)c2c(c1)C(=O)c1cccc(O)c1C2=O [rhein] | 100% | 102% | 97.6% | 95.7% | 98.1% | 90% | 96.6% | 106% | 98.5% | 111% | 110% | 95.5% | 106% | 93.3% | 88.6% | 103% | 98.4% | 99% | 98.2% | 102% | 98.7% | 92.7% | 95.5% | 99.1% | 99.2% | > 10 µM | > 10 µM | > 10 µM | > 10 µM | > 10 µM | 0 | 0 | 0.2 | 0 | 0
CC1=C(C(=O)O)N2C(=O)[C@@H](NC(=O)[C@H](N)c3ccc(O)cc3)[C@H]2SC1 [cefadroxil] | 92.8% | 93.5% | 93.1% | 85.7% | 99.1% | 100% | 99.1% | 107% | 93.2% | 106% | 90.4% | 101% | 95.6% | 103% | 105% | 101% | 96.2% | 99.4% | 97% | 103% | 89.4% | 101% | 91.8% | 98.1% | 104% | > 10 µM | > 10 µM | > 10 µM | > 10 µM | > 10 µM | 0 | 0 | 0 | 0 | 0
CO[C@@]1(NC(=O)Cc2cccs2)C(=O)N2C(C(=O)O)=C(COC(N)=O)CS[C@@H]21 [cefoxitin] | 90.1% | 95.5% | 102% | 101% | 97.8% | 106% | 94.4% | 106% | 104% | 110% | 113% | 91.4% | 98.1% | 97.4% | 97.4% | 95.6% | 99% | 96.3% | 102% | 105% | 104% | 95.7% | 100% | 96.8% | 85.5% | > 10 µM | > 10 µM | > 10 µM | > 10 µM | > 10 µM | 0 | 0 | 0 | 0 | 0.5
Cc1ccc(-c2ccc(F)cc2COc2ccc(CCC(=O)O)cc2)cc1 [TUG-891] | 93.8% | 91.7% | 87.9% | 98.5% | 92.4% | 93.6% | 97.7% | 105% | 96.6% | 105% | 109% | 96.7% | 100% | 117% | 110% | 97.8% | 101% | 94.2% | 93.6% | 99.2% | 101% | 102% | 100% | 97.9% | 99% | > 10 µM | > 10 µM | > 10 µM | > 10 µM | > 10 µM | 0 | 0 | 0 | 0 | 0
O=C(c1ccc(C(=O)N2CCC(N3CCCC3)CC2)c(Nc2ccccc2)c1)N1CCC(N2CCCC2)CC1 [UNC1215] | 108% | 97.7% | 100% | 110% | 94.1% | 105% | 111% | 106% | 93.4% | 101% | 98.6% | 99.2% | 96.7% | 98% | 103% | 104% | 102% | 100% | 97.9% | 105% | 94% | 95.9% | 101% | 99.6% | 99.9% | > 10 µM | > 10 µM | > 10 µM | > 10 µM | > 10 µM | 0 | 0 | 0 | 0 | 0
COc1ccc(CCNCC(O)COc2cccc(C)c2)cc1OC (stereo not given) [bevantolol] | 94.3% | 111% | 103% | 90.3% | 104% | 107% | 103% | 102% | 113% | 96% | 90.1% | 87.2% | 99.7% | 89.8% | 92.1% | 101% | 95.9% | 101% | 101% | 99.8% | 98.5% | 95.8% | 94.7% | 90.1% | 98.7% | > 10 µM | > 10 µM | > 10 µM | > 10 µM | > 10 µM | 0 | 0 | 0 | 0 | 0
COc1ccc(C2CNC(=O)NC2)cc1O[C@H]1C[C@@H]2CC[C@H]1C2 [atizoram] | 95.3% | 96.9% | 98.6% | 96.6% | 102% | 103% | 102% | 96.3% | 108% | 108% | 99% | 107% | 102% | 94.1% | 82.8% | 106% | 96.5% | 101% | 102% | 103% | 96.5% | 105% | 100% | 99.5% | 87.4% | > 10 µM | > 10 µM | > 10 µM | > 10 µM | > 10 µM | 0 | 0 | 1 | 0 | 0.1
NC(=O)c1ccc(N(C(N)=O)c2c(F)cccc2F)nc1-c1ccc(F)cc1F [VX-702] | 102% | 89.9% | 103% | 85.6% | 88.4% | 101% | 94.4% | 94% | 95.4% | 87.8% | 101% | 109% | 91.9% | 110% | 108% | 97.8% | 96.2% | 96.8% | 92.6% | 94.4% | 92.7% | 105% | 88.5% | 89.1% | 89.1% | > 10 µM | > 10 µM | > 10 µM | > 10 µM | > 10 µM | 1.1 | 0 | 0 | 0 | 0.7
NC(Cc1ccc(I)cc1)C(=O)O (stereo in doubt) [4-iodo-L-phenylalanine] | 102% | 97.4% | 98.2% | 97.3% | 106% | 103% | 101% | 106% | 108% | 95.2% | 96.3% | 101% | 82.5% | 104% | 109% | 102% | 97.8% | 98.8% | 102% | 97.6% | 96.7% | 99.2% | 97.4% | 94.4% | 103% | > 10 µM | > 10 µM | > 10 µM | > 10 µM | > 10 µM | 0 | 0 | 0 | 0 | 0
COc1cc(C[C@H](C)[C@H](C)Cc2ccc3c(c2)OCO3)ccc1O [macelignan] | 87.3% | 102% | 93.9% | 96.6% | 87.3% | 99.3% | 102% | 102% | 101% | 103% | 98.4% | 103% | 92.1% | 81.1% | 86.3% | 98.5% | 99% | 94% | 101% | 91.5% | 100% | 106% | 98.9% | 95.4% | 101% | > 10 µM | > 10 µM | > 10 µM | > 10 µM | > 10 µM | 0 | 0 | 3.3 | 0 | 0
CNc1ccc([N+](=O)[O-])cc1-n1cnc(-c2ccc(C(F)(F)F)cc2)c1 [CU-T12-9] | 95.4% | 105% | 96.8% | 101% | 101% | 104% | 90.9% | 93.8% | 94.9% | 94.9% | 108% | 104% | 93.8% | 95.4% | 91.3% | 103% | 103% | 96.2% | 98.2% | 100% | 103% | 96.4% | 100% | 101% | 102% | > 10 µM | > 10 µM | > 10 µM | > 10 µM | > 10 µM | 0 | 0 | 0 | 0 | 0

Reference: the supplement of paper PMC13380429
